In PubChem BioAssay AID256 (DTP/NCI, 2004):
Several values for one entry are separate records, joined by “and”; a condition that tells them apart may be missing. Identical values can stand only once. Inconclusive results and toxic doses are left out.

System: CD2F1 mice, L1210 leukemia ip, survival T/C
Assay: NCI In Vivo Anticancer Drug Screen. Data for tumor model L1210 Leukemia (intraperitoneal) in CD2F1 (CDF1) mice
Settings: higher = longer survival
Procedure, shortened: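 In this screen, transplantable tumors were grown in mice given either the compound or its vehicle. Results were expressed as the treated measurement relative to the control measurement.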

[1] = endpoint: mean survival time, dose: 100.0 mg/kg/injection, schedule: Q01DX001 (ip), vehicle: saline
[2] = endpoint: mean survival time, dose: 200.0 mg/kg/injection, schedule: Q01DX001 (ip), vehicle: saline
[3] = endpoint: mean survival time, dose: 400.0 mg/kg/injection, schedule: Q01DX001 (ip), vehicle: saline

SMILES: COc1cccc2c1C(=O)c1c(O)c3c(c(O)c1C2=O)C[C@@](O)(C(=O)CO)C[C@@H]3OC1CC(N)C(O)C(C)O1 (stereo partly drawn)
- T/C (endpoint: mean survival time, dose: 0.06 mg/kg/injection, schedule: Q01DX009 (ip), vehicle: saline): 105 % of control
- T/C (endpoint: mean survival time, dose: 0.12 mg/kg/injection, schedule: Q01DX009 (ip), vehicle: saline): 114 % of control
- T/C (endpoint: mean survival time, dose: 0.2 mg/kg/injection, schedule: Q01DX009 (ip), vehicle: water): 113 % of control and 114 % of control
- T/C (endpoint: mean survival time, dose: 0.25 mg/kg/injection, schedule: Q01DX005 (ip), vehicle: water): 121 % of control
- T/C (endpoint: mean survival time, dose: 0.38 mg/kg/injection, schedule: Q01DX009 (ip), vehicle: saline): 121 % of control
- T/C (endpoint: mean survival time, dose: 0.39 mg/kg/injection, schedule: Q01DX009 (ip), vehicle: water): 117 % of control
- T/C (endpoint: mean survival time, dose: 0.43 mg/kg/injection, schedule: Q01DX009 (ip), vehicle: saline): 120 % of control
- T/C (endpoint: mean survival time, dose: 0.62 mg/kg/injection, schedule: Q04DX003 (ip), vehicle: water): 120 % of control
- T/C (endpoint: mean survival time, dose: 0.63 mg/kg/injection, schedule: Q04DX003 (ip), vehicle: water): 123 % of control
- T/C (endpoint: mean survival time, dose: 0.72 mg/kg/injection, schedule: Q01DX009 (ip), vehicle: saline): 173 % of control
- T/C (endpoint: mean survival time, dose: 1.0 mg/kg/injection, schedule: Q01DX001 (ip), vehicle: water): 101 % of control
- T/C (endpoint: mean survival time, dose: 1.0 mg/kg/injection, schedule: Q01DX005 (ip), vehicle: water): 174 % of control
- T/C (endpoint: mean survival time, dose: 1.08 mg/kg/injection, schedule: Q04DX003 (ip), vehicle: saline): 124 % of control
- T/C (endpoint: mean survival time, dose: 1.2 mg/kg/injection, schedule: Q01DX009 (ip), vehicle: saline): 204 % of control
- T/C (endpoint: mean survival time, dose: 1.68 mg/kg/injection, schedule: Q01DX001 (ip), vehicle: water): 159 % of control
- T/C (endpoint: mean survival time, dose: 1.68 mg/kg/injection, schedule: Q01DX009 (ip), vehicle: water): 160 % of control
- T/C (endpoint: mean survival time, dose: 1.7 mg/kg/injection, schedule: Q01DX001 (ip), vehicle: water): 99 % of control
- T/C (endpoint: mean survival time, dose: 1.8 mg/kg/injection, schedule: Q04DX003 (ip), vehicle: saline): 121 % of control
- T/C (endpoint: mean survival time, dose: 2.0 mg/kg/injection, schedule: Q01DX001 (ip), vehicle: saline): 102 % of control
- T/C (endpoint: mean survival time, dose: 2.5 mg/kg/injection, schedule: Q04DX003 (ip), vehicle: water): 187 % of control
- T/C (endpoint: mean survival time, dose: 2.8 mg/kg/injection, schedule: Q01DX001 (ip), vehicle: water): 155 % of control
- T/C (endpoint: mean survival time, dose: 2.8 mg/kg/injection, schedule: Q01DX009 (ip), vehicle: water): 153 % of control
- T/C (endpoint: mean survival time, dose: 2.9 mg/kg/injection, schedule: Q01DX001 (ip), vehicle: water): 98 % of control
- T/C (endpoint: mean survival time, dose: 3.0 mg/kg/injection, schedule: Q01DX009 (ip), vehicle: saline): 114 % of control and 101 % of control
- T/C (endpoint: mean survival time, dose: 3.13 mg/kg/injection, schedule: Q01DX009 (ip), vehicle: water): 101 % of control
- T/C (endpoint: mean survival time, dose: 4.0 mg/kg/injection, schedule: Q01DX001 (ip), vehicle: saline): 193 % of control
- T/C (endpoint: mean survival time, dose: 4.67 mg/kg/injection, schedule: Q01DX001 (ip), vehicle: water): 166 % of control
- T/C (endpoint: mean survival time, dose: 4.67 mg/kg/injection, schedule: Q01DX009 (ip), vehicle: water): 100 % of control
- T/C (endpoint: mean survival time, dose: 4.8 mg/kg/injection, schedule: Q01DX001 (ip), vehicle: water): 102 % of control
- T/C (endpoint: mean survival time, dose: 5.0 mg/kg/injection, schedule: Q01DX001 (ip), vehicle: saline): 150 % of control and 171 % of control
- T/C (endpoint: mean survival time, dose: 5.0 mg/kg/injection, schedule: Q01DX001 (ip), vehicle: water): 151 % of control and 178 % of control
- T/C (endpoint: mean survival time, dose: 5.0 mg/kg/injection, schedule: Q04DX003 (ip), vehicle: water): 166 % of control
- T/C (endpoint: mean survival time, dose: 5.4 mg/kg/injection, schedule: Q01DX001 (ip), vehicle: saline): 151 % of control and 260 % of control
- T/C (endpoint: mean survival time, dose: 6.6 mg/kg/injection, schedule: Q01DX001 (ip), vehicle: saline): 193 % of control
- T/C (endpoint: mean survival time, dose: 7.78 mg/kg/injection, schedule: Q01DX001 (ip), vehicle: water): 153 % of control
- T/C (endpoint: mean survival time, dose: 8.0 mg/kg/injection, schedule: Q01DX001 (ip), vehicle: saline): 208 % of control
- T/C (endpoint: mean survival time, dose: 8.0 mg/kg/injection, schedule: Q01DX001 (ip), vehicle: water): 98 % of control
- T/C (endpoint: mean survival time, dose: 8.0 mg/kg/injection, schedule: Q04DX003 (ip), vehicle: saline): 163 % of control
- T/C (endpoint: mean survival time, dose: 8.0 mg/kg/injection, schedule: Q04DX003 (ip), vehicle: water): 116 % of control
- T/C (endpoint: mean survival time, dose: 10.0 mg/kg/injection, schedule: Q01DX001 (ip), vehicle: water): 169 % of control and 176 % of control
- T/C (endpoint: mean survival time, dose: 10.0 mg/kg/injection, schedule: Q04DX003 (ip), vehicle: water): 89 % of control
- T/C (endpoint: mean survival time, dose: 12.96 mg/kg/injection, schedule: Q01DX001 (ip), vehicle: water): 161 % of control
- T/C (endpoint: mean survival time, dose: 13.33 mg/kg/injection, schedule: Q01DX001 (ip), vehicle: water): 104 % of control
- T/C (endpoint: mean survival time, dose: 15.0 mg/kg/injection, schedule: Q01DX001 (ip), vehicle: saline): 196 % of control and 201 % of control
- T/C (endpoint: mean survival time, dose: 18.0 mg/kg/injection, schedule: Q01DX001 (ip), vehicle: saline): 121 % of control
- T/C (endpoint: mean survival time, dose: 20.0 mg/kg/injection, schedule: Q01DX001 (ip), vehicle: saline): 225 % of control
- T/C (endpoint: mean survival time, dose: 20.0 mg/kg/injection, schedule: Q01DX001 (ip), vehicle: water): 121 % of control and 263 % of control
- T/C (endpoint: mean survival time, dose: 22.23 mg/kg/injection, schedule: Q01DX001 (ip), vehicle: water): 119 % of control
- T/C (endpoint: mean survival time, dose: 40.0 mg/kg/injection, schedule: Q01DX001 (ip), vehicle: water): 100 % of control
- T/C (endpoint: mean survival time, dose: 20.0 micrograms/kg/injection, schedule: Q01DX005 (ip), vehicle: saline): 100 % of control
- T/C (endpoint: mean survival time, dose: 40.0 micrograms/kg/injection, schedule: Q01DX005 (ip), vehicle: saline): 117 % of control
- T/C (endpoint: median survival time, dose: 0.5 mg/kg/injection, schedule: Q01DX009 (ip), vehicle: saline): 170 % of control
- T/C (endpoint: median survival time, dose: 1.0 mg/kg/injection, schedule: Q01DX005 (ip), vehicle: water): 150 % of control
- T/C (endpoint: median survival time, dose: 2.0 mg/kg/injection, schedule: Q01DX005 (ip), vehicle: water): 162 % of control
- T/C (endpoint: median survival time, dose: 2.0 mg/kg/injection, schedule: Q04DX003 (ip), vehicle: water): 163 % of control
- T/C (endpoint: median survival time, dose: 2.16 mg/kg/injection, schedule: Q04DX003 (ip), vehicle: saline): 115 % of control
- T/C (endpoint: median survival time, dose: 3.6 mg/kg/injection, schedule: Q01DX001 (ip), vehicle: saline): 151 % of control
- T/C (endpoint: median survival time, dose: 3.6 mg/kg/injection, schedule: Q04DX003 (ip), vehicle: saline): 113 % of control
- T/C (endpoint: median survival time, dose: 4.0 mg/kg/injection, schedule: Q04DX003 (ip), vehicle: saline): 157 % of control
- T/C (endpoint: median survival time, dose: 4.0 mg/kg/injection, schedule: Q04DX003 (ip), vehicle: water): 339 % of control
- T/C (endpoint: median survival time, dose: 4.8 mg/kg/injection, schedule: Q01DX001 (ip), vehicle: saline): 103 % of control
- T/C (endpoint: median survival time, dose: 5.0 mg/kg/injection, schedule: Q01DX001 (ip), vehicle: saline): 150 % of control and 155 % of control
- T/C (endpoint: median survival time, dose: 6.0 mg/kg/injection, schedule: Q01DX001 (ip), vehicle: saline): 152 % of control
- T/C (endpoint: median survival time, dose: 6.0 mg/kg/injection, schedule: Q04DX003 (ip), vehicle: saline): 115 % of control
- T/C (endpoint: median survival time, dose: 8.0 mg/kg/injection, schedule: Q01DX009 (ip), vehicle: saline): 104 % of control
- T/C (endpoint: median survival time, dose: 8.0 mg/kg/injection, schedule: Q04DX003 (ip), vehicle: saline): 154 % of control
- T/C (endpoint: median survival time, dose: 8.0 mg/kg/injection, schedule: Q04DX003 (ip), vehicle: water): 182 % of control and 339 % of control
- T/C (endpoint: median survival time, dose: 8.4 mg/kg/injection, schedule: Q04DX003 (ip), vehicle: water): 103 % of control
- T/C (endpoint: median survival time, dose: 9.6 mg/kg/injection, schedule: Q01DX001 (ip), vehicle: saline): 113 % of control and 216 % of control
- T/C (endpoint: median survival time, dose: 14.0 mg/kg/injection, schedule: Q04DX003 (ip), vehicle: water): 78 % of control
- T/C (endpoint: median survival time, dose: 16.0 mg/kg/injection, schedule: Q01DX001 (ip), vehicle: water): 76 % of control
- T/C (endpoint: median survival time, dose: 16.0 mg/kg/injection, schedule: Q01DX001 (iv), vehicle: water): 193 % of control
- T/C (endpoint: median survival time, dose: 20.0 mg/kg/injection, schedule: Q01DX001 (ip), vehicle: saline): 71 % of control
- T/C (endpoint: median survival time, dose: 26.7 mg/kg/injection, schedule: Q01DX001 (ip), vehicle: saline): 99 % of control
- T/C (endpoint: median survival time, dose: 32.0 mg/kg/injection, schedule: Q01DX001 (iv), vehicle: water): 65 % of control
- T/C (endpoint: median survival time, dose: 40.0 mg/kg/injection, schedule: Q01DX001 (ip), vehicle: saline): 53 % of control

SMILES: O=S(=O)(O)Cc1ccccc1O
- T/C [1]: 100 % of control
- T/C (endpoint: mean survival time, dose: 100.0 mg/kg/injection, schedule: Q04DX003 (ip), vehicle: saline): 96 % of control
- T/C [2]: 100 % of control
- T/C (endpoint: mean survival time, dose: 200.0 mg/kg/injection, schedule: Q04DX003 (ip), vehicle: saline): 95 % of control
- T/C [3]: 102 % of control
- T/C (endpoint: mean survival time, dose: 400.0 mg/kg/injection, schedule: Q04DX003 (ip), vehicle: saline): 89 % of control

SMILES: CCOC(=O)c1c2cccccc-2c(C(=O)OCC)c1N
- T/C (endpoint: mean survival time, dose: 100.0 mg/kg/injection, schedule: Q04DX003 (ip), vehicle: saline with Tween-80): 95 % of control
- T/C (endpoint: mean survival time, dose: 200.0 mg/kg/injection, schedule: Q04DX003 (ip), vehicle: saline with Tween-80): 109 % of control
- T/C (endpoint: mean survival time, dose: 400.0 mg/kg/injection, schedule: Q04DX003 (ip), vehicle: saline with Tween-80): 92 % of control

SMILES: CC(=O)Nc1ccsc1
- T/C [1]: 96 % of control
- T/C [2]: 95 % of control
- T/C [3]: 95 % of control
